Reference: ChEMBL document CHEMBL1158249, “Cytotoxic falcarinol oxylipins from Dendropanax arboreus” (J Nat Prod, 1996)
Activity calls are given as the source filed them. The rule behind the calls is not given here.

Key:
[1] = Cytotoxicity against human NCI60 cells; type: functional
[2] = tested on: LOX; assay: Antitumor activity against human LOX cells xenografted athymic nude mouse at 225 mg/kg, ip administered daily for 5 days; type: functional, organism-based; design: dose 225 mg/kg
[3] = tested on: Mus musculus; assay: Toxicity against human LOX cells xenografted athymic nude mouse assessed as median day of death at 1.76 mg/kg, ip administered daily for 5 days; type: organism-based; design: dose 1.76 mg/kg, route intraperitoneal; details: in vivo, 120 h
[4] = tested on: LOX; assay: Antitumor activity against human LOX cells xenografted athymic nude mouse at 0.17 mg/kg, ip administered daily for 5 days; type: functional, organism-based; design: dose 0.17 mg/kg
[5] = Antitumor activity against human LOX cells xenografted athymic nude mouse assessed as increase in life span at 0.17 mg/kg, ip administered daily for 5 days; type: functional; details: route intraperitoneal
[6] = tested on: LOX; assay: Antitumor activity against human LOX cells xenografted athymic nude mouse at 28.12 mg/kg, ip administered daily for 5 days; type: functional, organism-based; design: dose 28.12 mg/kg
[7] = tested on: LOX; assay: Antitumor activity against human LOX cells xenografted athymic nude mouse at 3.51 mg/kg, ip administered daily for 5 days; type: functional, organism-based; design: dose 3.51 mg/kg
[8] = tested on: LOX; assay: Antitumor activity against human LOX cells xenografted athymic nude mouse at 1.33 mg/kg, ip administered daily for 5 days; type: functional, organism-based; design: dose 1.33 mg/kg
[9] = tested on: Mus musculus; assay: Toxicity against human LOX cells xenografted athymic nude mouse assessed as median day of death at 3.51 mg/kg, ip administered daily for 5 days; type: organism-based; design: dose 3.51 mg/kg, route intraperitoneal; details: in vivo, 120 h
[10] = tested on: LOX; assay: Antitumor activity against human LOX cells xenografted athymic nude mouse at 112.5 mg/kg, ip administered daily for 5 days; type: functional, organism-based; design: dose 112.5 mg/kg
[11] = tested on: Mus musculus; assay: Toxicity against human LOX cells xenografted athymic nude mouse assessed as median day of death at 0.39 mg/kg, ip administered daily for 5 days; type: organism-based; design: dose 0.39 mg/kg, route intraperitoneal; details: in vivo, 120 h
[12] = tested on: Mus musculus; assay: Toxicity against human LOX cells xenografted athymic nude mouse assessed as median day of death at 1.33 mg/kg, ip administered daily for 5 days; type: organism-based; design: dose 1.33 mg/kg, route intraperitoneal; details: in vivo, 120 h
[13] = tested on: LOX; assay: Antitumor activity against human LOX cells xenografted athymic nude mouse at 2.0 mg/kg, ip administered daily for 5 days; type: functional, organism-based; design: dose 2 mg/kg
[14] = tested on: Mus musculus; assay: Toxicity against human LOX cells xenografted athymic nude mouse assessed as median day of death at 14.06 mg/kg, ip administered daily for 5 days; type: organism-based; design: dose 14.06 mg/kg, route intraperitoneal; details: in vivo, 120 h
[15] = tested on: Mus musculus; assay: Toxicity against human LOX cells xenografted athymic nude mouse assessed as median day of death at 0.59 mg/kg, ip administered daily for 5 days; type: organism-based; design: dose 0.59 mg/kg, route intraperitoneal; details: in vivo, 120 h
[16] = Antitumor activity against human LOX cells xenografted athymic nude mouse assessed as increase in life span at 3.0 mg/kg, ip administered daily for 5 days; type: functional; details: route intraperitoneal
[17] = Antitumor activity against human LOX cells xenografted athymic nude mouse assessed as increase in life span at 1.76 mg/kg, ip administered daily for 5 days; type: functional; details: route intraperitoneal
[18] = tested on: LOX; assay: Antitumor activity against human LOX cells xenografted athymic nude mouse at 7.03 mg/kg, ip administered daily for 5 days; type: functional, organism-based; design: dose 7.03 mg/kg
[19] = tested on: Mus musculus; assay: Toxicity against human LOX cells xenografted athymic nude mouse assessed as median day of death at 112.5 mg/kg, ip administered daily for 5 days; type: organism-based; design: dose 112.5 mg/kg, route intraperitoneal; details: in vivo, 120 h
[20] = tested on: Mus musculus; assay: Toxicity against human LOX cells xenografted athymic nude mouse assessed as median day of death at 7.03 mg/kg, ip administered daily for 5 days; type: organism-based; design: dose 7.03 mg/kg, route intraperitoneal; details: in vivo, 120 h
[21] = tested on: Mus musculus; assay: Toxicity against human LOX cells xenografted athymic nude mouse assessed as median day of death at 225 mg/kg, ip administered daily for 5 days; type: organism-based; design: dose 225 mg/kg, route intraperitoneal; details: in vivo, 120 h
[22] = Antitumor activity against human LOX cells xenografted athymic nude mouse assessed as increase in life span at 0.59 mg/kg, ip administered daily for 5 days; type: functional; details: route intraperitoneal
[23] = tested on: LOX; assay: Antitumor activity against human LOX cells xenografted athymic nude mouse at 0.39 mg/kg, ip administered daily for 5 days; type: functional, organism-based; design: dose 0.39 mg/kg
[24] = Antitumor activity against human LOX cells xenografted athymic nude mouse assessed as increase in life span at 0.88 mg/kg, ip administered daily for 5 days; type: functional; details: route intraperitoneal
[25] = tested on: LOX; assay: Antitumor activity against human LOX cells xenografted athymic nude mouse at 3.0 mg/kg, ip administered daily for 5 days; type: functional, organism-based; design: dose 3 mg/kg
[26] = tested on: LOX; assay: Antitumor activity against human LOX cells xenografted athymic nude mouse at 56.25 mg/kg, ip administered daily for 5 days; type: functional, organism-based; design: dose 56.25 mg/kg
[27] = tested on: Mus musculus; assay: Toxicity against human LOX cells xenografted athymic nude mouse assessed as median day of death at 28.12 mg/kg, ip administered daily for 5 days; type: organism-based; design: dose 28.12 mg/kg, route intraperitoneal; details: in vivo, 120 h
[28] = tested on: LOX; assay: Antitumor activity against human LOX cells xenografted athymic nude mouse at 0.88 mg/kg, ip administered daily for 5 days; type: functional, organism-based; design: dose 0.88 mg/kg
[29] = tested on: Mus musculus; assay: Toxicity against human LOX cells xenografted athymic nude mouse assessed as median day of death at 0.88 mg/kg, ip administered daily for 5 days; type: organism-based; design: dose 0.88 mg/kg, route intraperitoneal; details: in vivo, 120 h
[30] = tested on: Mus musculus; assay: Toxicity against human LOX cells xenografted athymic nude mouse assessed as median day of death at 3.0 mg/kg, ip administered daily for 5 days; type: organism-based; design: dose 3 mg/kg, route intraperitoneal; details: in vivo, 120 h
[31] = Antitumor activity against human LOX cells xenografted athymic nude mouse assessed as increase in life span at 2.0 mg/kg, ip administered daily for 5 days; type: functional; details: route intraperitoneal
[32] = tested on: Mus musculus; assay: Toxicity against human LOX cells xenografted athymic nude mouse assessed as median day of death at 56.25 mg/kg, ip administered daily for 5 days; type: organism-based; design: dose 56.25 mg/kg, route intraperitoneal; details: in vivo, 120 h
[33] = tested on: LOX; assay: Antitumor activity against human LOX cells xenografted athymic nude mouse at 14.06 mg/kg, ip administered daily for 5 days; type: functional, organism-based; design: dose 14.06 mg/kg
[34] = tested on: Mus musculus; assay: Toxicity against human LOX cells xenografted athymic nude mouse assessed as median day of death at 0.17 mg/kg, ip administered daily for 5 days; type: organism-based; design: dose 0.17 mg/kg, route intraperitoneal; details: in vivo, 120 h
[35] = tested on: LOX; assay: Antitumor activity against human LOX cells xenografted athymic nude mouse at 0.59 mg/kg, ip administered daily for 5 days; type: functional, organism-based; design: dose 0.59 mg/kg
[36] = tested on: LOX; assay: Antitumor activity against human LOX cells xenografted athymic nude mouse at 1.76 mg/kg, ip administered daily for 5 days; type: functional, organism-based; design: dose 1.76 mg/kg
[37] = tested on: Mus musculus; assay: Toxicity against human LOX cells xenografted athymic nude mouse assessed as median day of death at 2.0 mg/kg, ip administered daily for 5 days; type: organism-based; design: dose 2 mg/kg, route intraperitoneal; details: in vivo, 120 h
[38] = tested on: LOX; assay: Antitumor activity against human LOX cells xenografted athymic nude mouse at 0.26 mg/kg, ip administered daily for 5 days; type: functional, organism-based; design: dose 0.26 mg/kg
[39] = Antitumor activity against human LOX cells xenografted athymic nude mouse assessed as increase in life span at 1.33 mg/kg, ip administered daily for 5 days; type: functional; details: route intraperitoneal
[40] = tested on: Mus musculus; assay: Toxicity against human LOX cells xenografted athymic nude mouse assessed as median day of death at 6.0 mg/kg, ip administered daily for 5 days; type: organism-based; design: dose 6 mg/kg, route intraperitoneal; details: in vivo, 120 h
[41] = tested on: LOX; assay: Antitumor activity against human LOX cells xenografted athymic nude mouse at 6.0 mg/kg, ip administered daily for 5 days; type: functional, organism-based; design: dose 6 mg/kg
[42] = tested on: Mus musculus; assay: Toxicity against human LOX cells xenografted athymic nude mouse assessed as median day of death at 0.26 mg/kg, ip administered daily for 5 days; type: organism-based; design: dose 0.26 mg/kg, route intraperitoneal; details: in vivo, 120 h
[43] = Antitumor activity against human LOX cells xenografted athymic nude mouse assessed as increase in life span at 0.26 mg/kg, ip administered daily for 5 days; type: functional; details: route intraperitoneal

SMILES: C=CCCCCC/C=C\[C@H](O)C#CC#C[C@@H](O)CC [DENDROARBOREOL A]
- GI50 [1]: 4600 nM
- LC50 [1]: 25000 nM
- TGI [1]: 14000 nM

SMILES: C=C[C@H](O)C#CC#CC/C=C\CCCCCCC [FALCARINOL]
- Activity [2]: Active
- Activity [3]: 22 days
- Activity [4]: inactive
- Activity [5]: 5%
- Activity [6]: Active
- Activity [7]: Active
- Activity [8]: inactive
- Activity [9]: 6.5 days
- Activity [10]: Active
- Activity [11]: 19 days
- Activity [12]: 20 days
- Activity [13]: inactive
- Activity [14]: 4.5 days
- Activity [15]: 22.5 days
- Activity [16]: 13%
- Activity [17]: 5%
- Activity [18]: Active
- Activity [19]: 3 days
- Activity [20]: 5.5 days
- Activity [21]: 2 days
- Activity [22]: 13%
- Activity [23]: inactive
- Activity [24]: 5%
- Activity [25]: inactive
- Activity [26]: Active
- Activity [27]: 4 days
- Activity [28]: inactive
- Activity [29]: 22 days
- Activity [30]: 20 days
- Activity [31]: 7%
- Activity [32]: 3 days
- GI50 [1]: 220 nM
- LC50 [1]: 3800 nM
- TGI [1]: 760 nM
- Activity [33]: Active
- Activity [34]: 21 days
- Activity [35]: inactive
- Activity [36]: inactive
- Activity [37]: 19.5 days

SMILES: C=C[C@@H](O)C#CC#C[C@@H](O)/C=C\CCCCCCC [FALCARINDIOL]
- GI50 [1]: 660 nM
- TGI [1]: 2200 nM

SMILES: C=CCCCCCC(O)/C=C/C#CC#C[C@@H](O)C=C (stereo not given in full) [DENDROARBOREOL B]
- GI50 [1]: 500 nM
- LC50 [1]: 7600 nM
- TGI [1]: 1900 nM

SMILES: C=CCCCCC/C=C\[C@H](O)C#CC#C[C@@H](O)C=C
- Activity [38]: inactive
- Activity [8]: inactive
- Activity [39]: 3%
- Activity [40]: 15 days
- Activity [41]: inactive
- Activity [11]: 14.5 days
- Activity [12]: 15.5 days
- Activity [13]: inactive
- Activity [15]: 15 days
- Activity [23]: inactive
- Activity [25]: inactive
- Activity [42]: 15 days
- Activity [28]: inactive
- Activity [29]: 14 days
- Activity [30]: 14.5 days
- GI50 [1]: 2100 nM
- LC50 [1]: 10000 nM
- TGI [1]: 3000 nM
- Activity [35]: inactive
- Activity [37]: 14 days

SMILES: C=CCCCCC/C=C\CC#CC#C[C@@H](O)C=C
- Activity [4]: inactive
- Activity [38]: inactive
- Activity [8]: inactive
- Activity [43]: 20%
- Activity [39]: 20%
- Activity [11]: 15 days
- Activity [12]: 15 days
- Activity [13]: inactive
- Activity [15]: 15 days
- Activity [16]: 47%
- Activity [22]: 20%
- Activity [23]: inactive
- Activity [24]: 13%
- Activity [25]: inactive
- Activity [42]: 18 days
- Activity [28]: inactive
- Activity [29]: 15 days
- Activity [30]: 18 days
- Activity [31]: 27%
- GI50 [1]: 400 nM
- LC50 [1]: 4800 nM
- TGI [1]: 1300 nM
- Activity [34]: 15 days
- Activity [35]: inactive
- Activity [37]: 16 days

SMILES: C=C[C@H](O)C#CC#C/C=C/C(O)CCCCCCC (stereo not given in full)
- GI50 [1]: 440 nM
- LC50 [1]: 4700 nM
- TGI [1]: 1400 nM
